Reference: PMC5420329 (Journal of medicinal chemistry, 2015)
Like-named read-outs stand apart in the source and are kept apart here.

What was measured:
TGFα = assay: Inhibition of TGFα shedding in A549 cells; assay type: cell-based; details: for inhibition at 40 µM: Homo sapiens, A549, read-out: TGFα shedding inhibition
zinc metalloproteinases = assay: Selectivity testing against extended panel of zinc metalloproteinases; assay type: biochemical; details: ADAM17 versus five other metzincins
betacellulin = assay: Inhibition of betacellulin shedding in A549 cells; assay type: cell-based; details: for inhibition at 40 µM: Homo sapiens, A549, read-out: BTC (betacellulin) shedding inhibition
Heregulin = assay: Inhibition of heregulin shedding in A549 cells; assay type: cell-based; details: for inhibition at 40 µM: Homo sapiens, A549, read-out: Heregulin shedding inhibition
CXCL16 = CXCL16 shedding inhibition in HTSMC; assay type: cell-based, human; details: for CXCL16 shedding inhibition: HTSMC, 10 μM; for inhibition at 10 µM: Homo sapiens, read-out: CXCL16 shedding inhibition
HEPG2 cells = assay: CellTiter Glo cell viability assay; assay type: cell-based; details: 72 h, up to 33 μM
MDA-MB-231 cells = assay: CellTiter Glo cell viability assay; assay type: cell-based; details: 72 h, up to 33 μM
HT1080 cells [1] = details: cited from earlier work
[2] = tested on: EGFR ligand (heregulin, TGFα, HB-EGF, amphiregulin, and EGF); details: cited from earlier work
PTK7 = details: cited from earlier work
ADAM17 = ADAM17 (Homo sapiens, UniProt P78536); assay: ADAM17 glycosylated substrate assay; assay type: biochemical
MMP8 = MMP8 (Homo sapiens, UniProt P22894); assay: MMP assay; assay type: biochemical
MMP2 = MMP2 (Homo sapiens, UniProt P08253); assay: MMP assay; assay type: biochemical
MMP9 = MMP9 (Homo sapiens, UniProt P14780); assay: MMP assay; assay type: biochemical
TNFα = assay: Inhibition of TNFα shedding in THP-1 cells; assay type: cell-based; details: Homo sapiens, THP-1, read-out: TNFα shedding inhibition
ADAM10 = ADAM10 (Homo sapiens, UniProt O14672); assay: ADAM10 glycosylated substrate assay; assay type: biochemical
MMP14 = MMP14 (Homo sapiens, UniProt P50281); assay: MMP assay; assay type: biochemical
L622D-PTK7 = assay: Inhibition of PTK7 shedding in HT1080-L622D cells; assay type: cell-based, human
Notch = details: SKMEL-28, 25 μM; ref Personal communication from Dr. Kaushik (Kansas University Medical Center); cited from earlier work
A549 cells [3] = assay: CellTiter Glo cell viability assay; assay type: cell-based; details: 72 h, up to 33 μM
wtPTK7 = assay: Inhibition of PTK7 shedding in SW480 cells; assay type: cell-based
A549 cells [4] = assay: Synergy studies, A549 viability assay
HT1080 cells [5] = assay: Transwell invasion assay; assay type: cell-based, human; details: Matrigel

Sequence of ADAM10 (O14672 214-748): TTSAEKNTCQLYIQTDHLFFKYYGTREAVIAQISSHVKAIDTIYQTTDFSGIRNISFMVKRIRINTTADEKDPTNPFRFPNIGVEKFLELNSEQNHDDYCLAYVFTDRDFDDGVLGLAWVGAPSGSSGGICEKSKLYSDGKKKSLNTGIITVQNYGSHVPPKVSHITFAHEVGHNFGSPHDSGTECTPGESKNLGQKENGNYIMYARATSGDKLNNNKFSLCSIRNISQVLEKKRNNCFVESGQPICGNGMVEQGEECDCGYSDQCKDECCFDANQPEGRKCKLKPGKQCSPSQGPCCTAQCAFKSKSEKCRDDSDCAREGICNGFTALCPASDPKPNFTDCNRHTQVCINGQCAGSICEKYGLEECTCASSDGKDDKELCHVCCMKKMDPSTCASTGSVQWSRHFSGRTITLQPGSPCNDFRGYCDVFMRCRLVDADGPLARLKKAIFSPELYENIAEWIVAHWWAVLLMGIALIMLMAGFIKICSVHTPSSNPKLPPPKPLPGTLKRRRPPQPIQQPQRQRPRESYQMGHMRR
Sequence of ADAM17 (P78536 215-824): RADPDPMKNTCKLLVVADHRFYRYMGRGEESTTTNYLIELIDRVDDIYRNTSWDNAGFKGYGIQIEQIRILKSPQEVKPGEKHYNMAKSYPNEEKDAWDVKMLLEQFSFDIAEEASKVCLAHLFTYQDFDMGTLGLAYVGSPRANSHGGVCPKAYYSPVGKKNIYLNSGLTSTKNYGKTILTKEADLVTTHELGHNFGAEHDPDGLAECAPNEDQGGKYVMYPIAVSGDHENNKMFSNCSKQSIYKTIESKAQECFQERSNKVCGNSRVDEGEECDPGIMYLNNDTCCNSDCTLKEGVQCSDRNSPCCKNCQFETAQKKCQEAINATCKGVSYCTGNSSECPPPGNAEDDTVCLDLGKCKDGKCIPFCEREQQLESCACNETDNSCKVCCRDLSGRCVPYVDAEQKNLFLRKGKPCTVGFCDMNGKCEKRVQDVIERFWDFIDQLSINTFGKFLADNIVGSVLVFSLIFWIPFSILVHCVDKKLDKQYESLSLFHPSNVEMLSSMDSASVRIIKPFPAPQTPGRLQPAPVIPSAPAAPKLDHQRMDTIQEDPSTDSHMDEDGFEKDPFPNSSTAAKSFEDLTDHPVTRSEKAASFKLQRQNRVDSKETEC
Sequence of MMP8 (P22894 101-467, species assumed): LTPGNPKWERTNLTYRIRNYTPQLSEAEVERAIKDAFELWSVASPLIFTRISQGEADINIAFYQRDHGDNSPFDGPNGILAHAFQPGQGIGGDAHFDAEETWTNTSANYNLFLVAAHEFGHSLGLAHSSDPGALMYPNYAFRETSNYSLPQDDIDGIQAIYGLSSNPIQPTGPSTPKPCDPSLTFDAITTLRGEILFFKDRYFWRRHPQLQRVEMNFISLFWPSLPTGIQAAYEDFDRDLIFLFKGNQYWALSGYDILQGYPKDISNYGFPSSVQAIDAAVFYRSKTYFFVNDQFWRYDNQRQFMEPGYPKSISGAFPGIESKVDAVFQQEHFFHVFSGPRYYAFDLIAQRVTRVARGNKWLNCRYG
Sequence of MMP9 (P14780 94-707, species assumed): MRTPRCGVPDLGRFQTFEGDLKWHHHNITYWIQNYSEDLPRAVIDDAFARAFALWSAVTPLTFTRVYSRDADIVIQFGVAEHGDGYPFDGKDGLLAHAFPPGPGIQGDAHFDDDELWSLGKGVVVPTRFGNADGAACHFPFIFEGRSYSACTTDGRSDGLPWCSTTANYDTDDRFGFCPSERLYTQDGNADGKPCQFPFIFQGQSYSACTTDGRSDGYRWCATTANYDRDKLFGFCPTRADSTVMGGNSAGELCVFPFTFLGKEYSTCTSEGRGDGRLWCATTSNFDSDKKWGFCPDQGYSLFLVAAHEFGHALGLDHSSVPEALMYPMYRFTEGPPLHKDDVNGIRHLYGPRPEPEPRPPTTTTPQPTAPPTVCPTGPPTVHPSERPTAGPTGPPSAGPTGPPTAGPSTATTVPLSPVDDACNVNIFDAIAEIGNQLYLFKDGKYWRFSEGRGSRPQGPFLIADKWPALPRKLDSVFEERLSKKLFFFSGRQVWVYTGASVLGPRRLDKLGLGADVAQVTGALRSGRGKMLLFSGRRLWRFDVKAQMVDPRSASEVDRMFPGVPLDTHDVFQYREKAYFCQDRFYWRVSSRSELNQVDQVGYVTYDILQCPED
Sequence of MMP2 (P08253 110-660, species assumed): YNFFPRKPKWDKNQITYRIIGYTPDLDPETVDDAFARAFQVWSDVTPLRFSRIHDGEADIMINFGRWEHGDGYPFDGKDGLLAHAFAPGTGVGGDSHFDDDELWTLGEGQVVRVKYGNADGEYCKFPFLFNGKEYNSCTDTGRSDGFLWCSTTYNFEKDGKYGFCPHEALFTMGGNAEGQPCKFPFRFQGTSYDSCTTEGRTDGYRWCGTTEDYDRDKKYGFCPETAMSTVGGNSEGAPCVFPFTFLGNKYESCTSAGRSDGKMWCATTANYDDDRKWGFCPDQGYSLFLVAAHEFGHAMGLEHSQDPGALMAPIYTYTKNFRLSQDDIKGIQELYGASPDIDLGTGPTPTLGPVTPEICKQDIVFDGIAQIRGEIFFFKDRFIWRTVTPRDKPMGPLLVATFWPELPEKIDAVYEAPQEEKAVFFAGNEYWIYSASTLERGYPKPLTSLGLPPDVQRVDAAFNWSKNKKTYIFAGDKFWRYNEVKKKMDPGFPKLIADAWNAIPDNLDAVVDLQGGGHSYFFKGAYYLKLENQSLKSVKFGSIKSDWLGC

Row | SMILES | inhibition at 40 µM (TGFα) [%] | selectivity profile (zinc metalloproteinases) | inhibition at 40 µM (betacellulin) [%] | inhibition at 40 µM (Heregulin) [%] | CXCL16 shedding inhibition (CXCL16) | inhibition at 10 µM (CXCL16) [%] | viability of HEPG2 cells (HEPG2 cells) | viability of MDA-MB-231 cells (MDA-MB-231 cells) | further results
1 | CCCC[C@H]1CN([C@@H](Cc2ccc(O)cc2)CN2CCC[C@H]2CN2C(=O)C(=O)NC[C@H]2Cc2ccc3ccccc3c2)C(=O)C(=O)N1CCC12CC3CC(CC(C3)C1)C2 [Compound 16, (S)-4-(2-(Adamantan-1-yl)ethyl)-5-butyl-1-((S)-1-(4-hydroxyphenyl)-3-((S)-2-(((R)-6-(naphthalen-2-ylmethyl)-2,3-dioxopiperazin-1-yl)methyl)pyrrolidin-1-yl)propan-2-yl)piperazine-2,3-dione] | 0 | inhibiting only ADAM17 | 0 | 0 | did not inhibit | 0 | – | – | –
2 | O=C1NC[C@H](Cc2ccccc2)N(C[C@@H]2CCCN2C[C@@H](CC2CCCCC2)N2C[C@H](Cc3ccc(O)cc3)N(CCc3ccccc3)C(=O)C2=O)C1=O [Compound 18, (S)-1((R)-1((S)-2-(((S)-6-Benzyl-2,3-dioxopiperazin-1-yl)methyl)-pyrrolidin-1-yl)-3-cyclohexylpropan-2-yl)-5-(4-hydroxybenzyl)-4-phenethylpiperazine-2,3-dione] | 0 | – | 0 | 0 | did not inhibit | 0 | did not inhibit viability | did not inhibit viability | –
3 | COC(=O)N1CC2(CC2)C[C@H](C(=O)NO)[C@H]1C(=O)N1CC=C(c2ccccc2)CC1 [INCB3619] | – | – | – | – | – | – | – | – | invasion of HT1080 cells (HT1080 cells [1]): able to inhibit; heregulin shedding in A549 cells [2]: abrogation of heregulin shedding; shedding of PTK7 (PTK7): able to inhibit
4 | O=C1NC[C@H](Cc2ccccc2)N(C[C@@H]2CCCN2C[C@@H](CC2CCCCC2)N2C[C@H](Cc3ccccc3)N(CCc3ccccc3)C(=O)C2=O)C1=O [Compound 21, (S)-5-Benzyl-1-((R)-1-((S)-2-(((S)-6-benzyl-2,3-dioxopiperazin-1-yl)methyl)pyrrolidin-1-yl)-3-cyclohexylpropan-2-yl)-4-phenethylpiperazine-2,3-dione] | 0 | inhibiting only ADAM17 | 0 | – | – | – | – | – | IC50 (ADAM17): 8.5 µM; inhibition at 100 µM (ADAM17; read-out: ADAM17 %inhibition at 100 μM): 100%; IC50 (MMP8): > 100 µM; IC50 (MMP2): > 100 µM; IC50 (MMP9): > 100 µM; inhibition at 25 µM (TNFα): 0%; IC50 (ADAM10): > 100 µM; IC50 (MMP14): > 100 µM
5 | O=C1NC[C@H](Cc2ccccc2)N(C[C@@H]2CCCN2C[C@H](Cc2ccccc2)N2C[C@H](Cc3ccc(O)cc3)N(CCC34CC5CC(CC(C5)C3)C4)C(=O)C2=O)C1=O [Compound 20, (S)-4-(2-(Adamantan-1yl)ethyl)-1-((S)-1-((S)-2-(((S)-6-benzyl-2,3-dioxopiperazin-1-yl)methyl)pyrrolidin-1-yl)-3-phenylpropan-2-yl)-5-(4-hydroxybenzyl)piperazine-2,3-dione] | 0 | inhibiting only ADAM17 | 0 | 0 | did not inhibit | 0 | did not inhibit viability | did not inhibit viability | –
6 | O=C1NC[C@@H](Cc2ccc(O)cc2)N(C[C@@H]2CCCN2C[C@@H](Cc2ccc3ccccc3c2)N2C[C@H](Cc3ccc(O)cc3)N(CCC34CC5CC(CC(C5)C3)C4)C(=O)C2=O)C1=O [Compound 17, (5R)-4-(2-((1R,3R)-Adamantan-1-yl)ethyl)-5-(4-hydroxybenzyl)-1-((2R)-1-(2-(((R)-6-(4-hydroxybenzyl)-2,3-dioxopiperazin-1-yl)-methyl)pyrrolidin-1-yl)-3-(naphthalen-2-yl)propan-2-yl)piperazine-2,3-dione] | 0 | – | 0 | 100 | did not inhibit | 0 | did not inhibit viability | did not inhibit viability | shedding of TGFα (TGFα; A549, up to 100 μM): did not affect shedding; PTK7 shedding inhibition (L622D-PTK7; HT1080 (L622D-PTK7), PMA, 25–100 μM): 25–50%; shedding of L622D-PTK7 (L622D-PTK7; HT1080-L622D, PMA stimulated, 50 and 100 μM): inhibited shedding; Notch shedding inhibition (Notch): 0%; viability of A549 cells (A549 cells [3]): no intrinsic activity; PTK7 shedding inhibition (wtPTK7; SW480 (wtPTK7), PMA, 25–100 μM): 0–82%; shedding of wtPTK-7 (wtPTK7; SW480, PMA stimulated, 50 and 100 μM): inhibited shedding; ADAM10 IC50 (ADAM10; Table 4 selectivity panel): did not inhibit; Heregulin shedding inhibition (Heregulin; A549, PMA, 40 μM): completely inhibited shedding; potentiation of gefitinib activity against A549 cells (A549 cells [4]; 40 μM compound 17): potentiated gefitinib activity; potentiation of doxorubicin activity (A549 cells [4]; A549, 40 μM compound 17): did not potentiate the activity; potentiation of etoposide activity (A549 cells [4]; A549, 40 μM compound 17): did not potentiate the activity; invasion of HT1080 cells (HT1080 cells [5]): dose-dependent inhibition of invasion
7 | CNC(=O)[C@@H](NC(=O)[C@H](CC(C)C)[C@H](O)C(=O)NO)C(C)(C)C [Marimastat, (2S,3R)-N4-[(1S)-2,2-dimethyl-1-[(methylamino)carbonyl]propyl]-N1,2-dihydroxy-3-(2-methylpropyl)butanediamide, reference compound] | – | – | – | – | – | – | – | – | soluble TGFα in supernatant (TGFα; A549, PMA, 10 μM): decreased soluble TGFα in the supernatant of A549 cells to the level of non-PMA-treated control; betacellulin shedding inhibition (betacellulin; A549, 10 μM): almost complete inhibition; shedding of EGFR ligands (heregulin, TGFα, HB-EGF, amphiregulin, EGF) ([2]; A549 cells): inhibited shedding of each tested EGFR ligand
